melting point | Structure (SMILES)
93 to 96 °C | CCOC(=O)c1cnc2c(cnn2Cc2ccco2)c1OCC
113 to 115 °C | COc1c2c(cc3c(C)cc(=O)oc13)CC(C)O2 (stereo unspecified)
250 to 252 °C | CCOC(=O)c1nnc2ccc(NC(=O)OCc3ccccc3)cc2c1O
184 to 186 °C | C=CCONC(=O)c1nc(-c2ccc(Cl)c(OC)c2F)c(F)c(N)c1Cl
161 to 164 °C | CCC1=NC(NC(=O)Nc2cccc(C)c2)C(=O)N(CC(=O)C2CCCCC2)c2c(C)cccc21 (stereo unspecified)
104 to 109 °C | CCCNC(=O)c1ccc(C)c(-c2nc(N(C)CCCN(C)C)nc3c2ccc(=O)n3-c2c(F)cccc2F)c1
254 to 256 °C | O=C(O)C1C=Nc2c(cc(F)cc2[N+](=O)[O-])C1=O (stereo unspecified)
79 to 80 °C | CC(=O)Nc1nc(-c2ccccc2)c(CCOC(C)=O)c2ncnn12
200 to 201 °C | COc1ccc(-c2c(CO)c(C)nc3cc(OC)c(OC)cc23)cc1OC
92 °C | CCOC(=Cc1ccc(-c2cccc(N(C)C(=O)Nc3ccc(C)cc3)c2)cc1)C(=O)O
230 to 232 °C | CC(C)Cn1cnc2c(N)nc3cccnc3c21
243 to 244 °C | O=C(Nc1ccc(N2CCC2)nc1)c1cc2cc(C(F)(F)F)cnc2n1Cc1cccc(F)c1
73 to 75 °C | CCOC(=O)/C=C(C)/C(F)=C/C=C(C)/C=C/c1c(C)sc(C)c1C
187 to 188 °C | CCOC(=O)c1c(Cn2cnnc2)nc2sc(C)c(C)c2c1-c1ccc(OC)c(OC)c1
116 to 117 °C | COc1ccnc(CCc2nc3cccnc3[nH]2)c1
201 to 203 °C | O=C(Nc1nccs1)C1CSc2sccc2C1=O (stereo unspecified)
140 °C | CCCc1c(OCc2ccccc2)ccc2c(=O)cc(/C=C/C(=O)OCC)oc12
86 to 88 °C | COc1ccc2c(c1)C1(CCN(Cc3ccccc3)CC1)OC2c1ccc(F)cc1 (stereo unspecified)
184 to 185 °C | C1=Cc2cccnc2N(C2CC2)c2ncccc21

melting point | Structure (SMILES)
179 to 181 °C | Cc1nnc(-c2ccc3c(=O)n(CC(C)C)c(CN)c(-c4ccccc4)c3c2)o1
> 230 °C | O=C(O)Cn1c(=O)c(=O)[nH]c2cc([N+](=O)[O-])c(-n3ccc(CN4CCN(Cc5ccccc5)CC4)c3)cc21
70 to 73 °C | CCC(=O)NC1CCC(CNc2nc3c(s2)CCOc2ccccc2-3)CC1 (stereo unspecified)
> 290 °C | O=C(O)[C@H]1CC[C@H](Nc2ncc3ncnc(Nc4ccc(F)c(Cl)c4)c3n2)CC1
232 to 233 °C | COC(=O)c1cccc2nc(N)sc12
196 °C | CS(=O)(=O)NCc1cccc(-c2csc(N=C(N)N)n2)n1
233 °C | CCOc1nc(NC(C)=O)nc2ccc(Cl)nc12
120 to 122 °C | CC(=C\c1ccccc1)/C=C(\C)C(=O)NCCCCCC(=O)NO
174 to 176 °C | CN(C)c1ccc(NC(=S)NCC(C)(C)C)cc1
173 to 178 °C | CC(C)c1ccc2c(c1)NC(=O)CC(c1ccnc(C#N)c1)=N2
201 to 204 °C | NS(=O)(=O)c1cc2c3c(cc([N+](=O)[O-])c2cc1[N+](=O)[O-])N(C(=O)C(F)(F)F)CC3CCl (stereo unspecified)
115 to 117 °C | CCOC(=O)c1coc(-c2ccc(CCl)cc2)n1
81 to 82 °C | Cc1ccc(F)c2c1N(C(c1ccccc1)c1ccccc1)C(=O)C21COc2cc3c(cc21)CCO3 (stereo unspecified)
76.5 °C | CC#CC(C)(C)NC(=O)C(OCC)Oc1cc(Cl)cc(Cl)c1 (stereo unspecified)
107 to 108 °C | COc1cc(C(=O)Cc2ccccc2)ccc1O
154 to 156 °C | CC(C)c1cc(C(=O)Nc2ccc(CC(=O)O)cc2)oc1C(C)C
> 250 °C | Cc1c(C=O)c2cc(Br)ccc2n1-c1ccc(O)cc1
183 to 185 °C | Cn1c(-c2cccs2)n[nH]c1=O

Continued, molecule first:

Structure (SMILES) | melting point
COc1ccc(Cl)cc1C(=O)NCCc1ccc([N+](=O)[O-])cc1 | 159 to 160 °C
CC(C)(C)OC(=O)N1CC2C(CCC3(C)C(C(=O)O)CCC23)C2(C)CCC(=O)C=C12 (stereo unspecified) | 215 to 216 °C
CC(C)c1ccc(C(=O)C2=C(O)C(=O)N(c3ncc(Sc4ccc([N+](=O)[O-])cc4)s3)C2c2ccc(OC(F)(F)F)cc2)cc1 (stereo unspecified) | 238 °C
CN(C)CCCCCC=C(NC(=O)C1CC1(C)C)C(=O)O (stereo unspecified) | 101 to 112 °C
COc1cc(CCc2ccccc2OCc2ccccc2)ncc1C(=O)O | 182 °C
CCN(CC)Cc1cc(C2(c3cccc(-c4cccnc4F)c3)N=C(N)N(C)C2=O)cn1CCF (stereo unspecified) | 121 to 140 °C
O=Cc1ccc(OC2OC(CO)C(O)C(O)C2O)cc1 (stereo unspecified) | 177 °C
CC(C)(C)C1=C(c2ccc(C(=O)N3CCOCC3)c(O)c2)OCC1(C)C | 141 to 142 °C
C=CCN(CC=C)c1nc(NC(=O)c2ccccc2)n2oc(=O)nc2n1 | 174 to 175 °C
OC1CC2(CCNC2)c2ccc(F)cc21 (stereo unspecified) | 162 to 164 °C
CNCCNCc1ccc(-c2cc3ncnc(Nc4ccc5[nH]ccc5c4)c3s2)cc1 | 93 to 105 °C
Nc1ccc(SCC2CCCCC2)cc1[N+](=O)[O-] | 80 to 82 °C
Cc1cc2c(cc1Cl)N(C(=O)CN1CCN(c3ccccc3)CC1)c1ccccc1N(C)S2(=O)=O | 194 to 196 °C
CCOC(=O)COc1cc2c(c(Cl)c1Cl)C(=O)C(c1ccccc1)C2 (stereo unspecified) | 114 to 115 °C
Cn1c(=O)c(C(=O)C2=C(O)CCCC2=O)nc2ccccc21 | 191 to 192 °C
Cc1cc(-c2ccc(C(F)(F)F)cc2)nc(-c2cccc(-c3ccc(S(N)(=O)=O)s3)c2)n1 | 225 °C
CCN1CCN(S(=O)(=O)c2ccc(C(CC3CCCC3)C(=O)Nc3nc4ccc(OC)nc4s3)cc2)CC1 (stereo unspecified) | 106 to 110 °C

Structure (SMILES) | melting point
O=C1OCC2Cc3cccc(F)c3OC12 (stereo unspecified) | 75.5 to 77.5 °C
CCCCCCCCCCCCCc1cc(C(=O)OCCBr)c[nH]1 | 67 to 69.5 °C
Cc1ccc2c(c1)c(-c1ccc(F)cc1)c(C)n2-c1ccncc1 | 172 to 174 °C
O=C(C(=C1SCS1)c1ccncc1)c1ccc(Cl)cc1 | 149 to 151 °C
CC(=O)c1c(CO)[nH]c(-c2ccncc2)c1C | 163 to 165 °C
Cc1cc(Cl)ccc1N=CN(C)SN(C)C=Nc1ccc(Cl)cc1C | 124 to 126 °C
Ic1ccc(OCCCCCCCN2CC2)nc1 | 41 to 45 °C
CSc1ccc(N2CCN(CCCOc3ccc(C4=NCCO4)cc3)CC2)nn1 | 163 °C
COc1ccc(OC)c(N2Cc3[nH]c(=O)[nH]c(=O)c3C2)c1 | 308 to 310 °C
CCCCCc1c([N+](=O)[O-])cc([N+](=O)[O-])c2nc(C(F)(F)F)[nH]c12 | 86 to 88 °C
CSC(=S)Nc1ccc(C)cc1C(=O)O | 199 °C
C=Cc1cc(CNC(=O)C(C)=Cc2ccc(C(C)(C)C)cc2)cc(F)c1NS(C)(=O)=O | 136 to 138 °C
COc1ccc(S(=O)O)c(OC)c1 | 89 to 91 °C
COc1cc2c(cc1OC)C(c1ccco1)=NN=C(C)C2 | 155 to 157 °C
CC(CSc1nc(-c2ccc(F)cc2)c(-c2ccc(F)cc2)[nH]1)Sc1nc(-c2ccc(F)cc2)c(-c2ccc(F)cc2)[nH]1 (stereo unspecified) | 243 to 245 °C
CCCC1COC(Cn2cncn2)(c2ccc(Oc3ccccc3)cc2)O1 (stereo unspecified) | 68.5 to 71 °C
O=c1[nH]c2c(OC3CNC3)cccc2n1Cc1ccccc1 | 181 to 184 °C

Source: a melting point compilation (Tetko et al.; mined from patent text by program, amines drawn as free bases though some values may be those of a salt)
